# Laboratory results published in publication PMC3600082 (Journal of medicinal chemistry, 2013).
# “Also recorded” adds a separate entry of the source.
# How the values were obtained:
# [1] = tested on: BVM-R HIV-1 variants (V370Δ, V370A, V362I, T371Δ); test: Multi-cycle viral replication in MT4 cell assay, panel of BVM-R variants; format: cell-based; conditions: for sensitivity of BVM-R viruses to the compound: BVM-R variants
# HIV-1 NL4-3 = conditions: relative to compound 1; cited from earlier work
# [2] = tested on: Gag CA-SP1 cleavage in NL4-3/V370A; test: Anti-HIV-1 maturation assay; format: cell-based; conditions: virus produced by 293T cells in presence of compound; Western blot
# [3] = tested on: HIV-1 NL4-3 Env-mediated cell-cell fusion; test: Fusion assay; format: cell-based; conditions: COS cells expressing Env mixed with TZM-bl cells; luciferase
# [4] = tested on: Gag CA-SP1 cleavage in wild type NL4-3; conditions: virus produced by 293T cells in presence of compound; Western blot
# [5] = tested on: Gag CA-SP1 cleavage in NL4-3/V362I; test: Anti-HIV-1 maturation assay; format: cell-based; conditions: virus produced by 293T cells in presence of compound; Western blot
# NL4-3/V370A = test: Multi-cycle viral replication in MT4 cell assay; format: cell-based, HIV-1; conditions: relative to compound 1
Compound,sensitivity of BVM-R viruses to the compound [1],increase in anti-HIV-1 maturation activity (HIV-1 NL4-3),"inhibition of Gag CA-SP1 cleavage (p25 accumulation), NL4-3/V370A [2]",inhibition of HIV-1 entry / Env-mediated cell-cell fusion [3],"inhibition of Gag CA-SP1 cleavage (p25 accumulation), wild type NL4-3 [4]",fold more potent than 1 against four BVM-R viruses ([1]; relative to compound 1),"inhibition of Gag CA-SP1 cleavage (p25 accumulation), NL4-3/V362I [5]",fold more potent than 1 against the replication of NL4-3/V370A (NL4-3/V370A)
"C=C(C)[C@@H]1CC[C@]2(C(=O)N3CCN(CCCCC(=O)O)CC3)CC[C@]3(C)[C@H](CC[C@@H]4[C@@]5(C)CC[C@H](OC(=O)CC(C)(C)C(=O)O)C(C)(C)[C@@H]5CC[C@]43C)[C@@H]12 [Compound 30, N-[3β-O-(3′,3′-dimethylsuccinyl)lup-20(29)-en-28-oyl]-5-piperazinepentanoic acid]",ineffective; also recorded: not effective,greater than 10 fold,–,–,–,–,–,–
"C=C(C)[C@@H]1CC[C@]2(C(=O)O)CC[C@]3(C)[C@H](CC[C@@H]4[C@@]5(C)CC[C@H](OC(=O)CC(C)(C)C(=O)O)C(C)(C)[C@@H]5CC[C@]43C)[C@@H]12 [Compound 1, 3-O-(3’,3’-dimethylsuccinyl)-betulinic acid]",not sensitive,–,did not inhibit the cleavage of Gag CA-SP1,do not inhibit HIV-1 entry,interfered with the cleavage of Gag CA-SP1,–,–,–
"C=C(C)[C@@H]1CC[C@]2(C(=O)NCCCCCCCCC(=O)N[C@@H](CCC(N)=O)C(=O)OC)CC[C@]3(C)[C@H](CC[C@@H]4[C@@]5(C)CC[C@H](OC(=O)CC(C)(C)C(=O)O)C(C)(C)[C@@H]5CC[C@]43C)[C@@H]12 [Compound 6, Methyl N-[N’-[3β-O-(3’,3’-dimethylsuccinyl)-betulinic acid-28-oyl]-9-aminononanoyl]-L-glutaminate]",sensitive,–,resulted in accumulation of CA-SP1 (p25),do not inhibit HIV-1 entry; also recorded: did not inhibit,–,at least 20 fold,accumulation of p25 was even more pronounced,at least 20 fold
